Experimental data: patent US8044094B2, “Agents for preventing and treating disorders connected to impaired neurotransmission” (DSM IP Assets B.V., priority 2004, dated 2011)

Columns and labels:
[1] = target: T1, human serotonin re-uptake transporter (hSERT) (Homo sapiens, UniProt P31645); test: Serotonin uptake inhibition in HEK-293 cells stably expressing hSERT; type: cell-based; conditions: transfected HEK-293 cells; Ki from IC50 by Cheng-Prusoff; 20 nM (3H) serotonin; read-out: Inhibition constant Ki for tritiated serotonin uptake
T1 sequence (P31645 whole entry): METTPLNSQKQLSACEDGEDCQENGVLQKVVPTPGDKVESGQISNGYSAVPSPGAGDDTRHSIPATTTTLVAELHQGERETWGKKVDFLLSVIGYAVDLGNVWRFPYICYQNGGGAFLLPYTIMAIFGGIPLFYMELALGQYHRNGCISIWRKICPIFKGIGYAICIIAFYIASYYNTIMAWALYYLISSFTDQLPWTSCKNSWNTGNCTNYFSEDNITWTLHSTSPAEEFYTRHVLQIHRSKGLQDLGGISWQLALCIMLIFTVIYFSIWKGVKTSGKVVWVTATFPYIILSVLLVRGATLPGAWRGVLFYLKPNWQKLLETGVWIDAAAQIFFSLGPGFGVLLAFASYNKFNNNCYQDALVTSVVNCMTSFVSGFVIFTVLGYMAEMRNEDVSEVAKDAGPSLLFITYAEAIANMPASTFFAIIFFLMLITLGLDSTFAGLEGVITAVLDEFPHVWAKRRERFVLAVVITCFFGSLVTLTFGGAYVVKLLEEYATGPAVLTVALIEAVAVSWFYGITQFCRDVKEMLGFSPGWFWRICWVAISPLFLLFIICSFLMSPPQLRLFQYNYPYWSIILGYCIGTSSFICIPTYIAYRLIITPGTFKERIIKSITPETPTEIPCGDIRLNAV
Protocol: HEK-293 cells stably expressing the human serotonin re-uptake transporter (hSERT) were obtained from R. Blakely, Vanderbilt University, USA. The cells were routinely grown in Dulbeco's Modified Eagles Medium, purchased from Bioconcept, Allschwil, Switzerland containing 10% fetal calf serum, penicillin, streptomycin, L-glutamine and the antibiotic G418 and passaged by trypsinisation. 1 day prior to the assay cells were seeded in the above mentioned medium. Immediately prior to the assay the medium was replaced by Krebs Ringers bicarbonate buffer, purchased from Sigma Chemicals Ltd., supplemented with 35 μM pargyline, 2.2 mM CaCl2, 1 mM ascorbic acid and 5 mM N-2-hydroxyethylpiperazine-N′-2-ethanesulfonic acid (buffer called “Hepes”). Serotonin uptake into the cells was determined by addition of radio-labeled (3H) serotonin (Amersham Biosciences GE Healthcare, Slough, UK) to a concentration of 20 nM, and incubation for 30 minutes at room temperature. Following removal of unincorporated label by gentle washing three times with the above buffer, incorporated serotonin was quantified by liquid scintillation counting.
(§1) The effect of the coumarin ethers of formula I on the serotonin uptake and the citalopram binding was determined by its inclusion in the assay at a range of concentrations between 0.03 and 100 μM for 10 minutes prior to and during the addition of (3H) serotonin/citalopram. Serotonin uptake via the transporter and citalopram binding were both inhibited by the coumarin ethers of formula I in a dose dependent manner. The calculated inhibition constants Ki, derived from the measured IC50 using the Cheng—Prusoff equation (Y. C. Cheng, W. H. Prusoff, Biochem. Pharmacol. 1973, 22, p. 3099-3108), for inhibition of serotonin uptake and citalopram binding by coumarin ethers of the formula I are shown in Table 1.

[2] = target: T1, human serotonin re-uptake transporter (hSERT); test: Labeled citalopram displacement from hSERT containing membranes (SPA); type: binding; conditions: hSERT containing membranes; Ki from IC50 by Cheng-Prusoff; 3.3 nM (3H) citalopram; read-out: Inhibition constant Ki for tritiated citalopram displacement
Protocol: Membranes containing hSERT were prepared from the above cell line according to Galli et al, Journal of Experimental Biology 1995, 198, 2197-2212. 3 μg of membrane protein and 0.8 mg of wheat germ aglutinin coated SPA® (scintillation proximity assay) beads (Amersham Biosciences GE Healthcare, Slough, UK) per data point were mixed with radio-labeled (3H) citalopram (Amersham Biosciences GE Healthcare, Slough, UK) until a final concentration of 3.3 nM in 50 mM Tris-HCl, 300 mM NaCl (pH 7.4). After incubation for 18 hours at room temperature, the bound citalopram was quantified by liquid scintillation counting.
as §1

MAO-B = target: T2, MAO-B (Homo sapiens, UniProt P27338); test: MAO-B inhibition, Amplex Red Monoamine Oxidase Assay Kit, colorimetric; type: biochemical
T2 construct: purchased Sigma M7441
T2 sequence (P27338 1-520): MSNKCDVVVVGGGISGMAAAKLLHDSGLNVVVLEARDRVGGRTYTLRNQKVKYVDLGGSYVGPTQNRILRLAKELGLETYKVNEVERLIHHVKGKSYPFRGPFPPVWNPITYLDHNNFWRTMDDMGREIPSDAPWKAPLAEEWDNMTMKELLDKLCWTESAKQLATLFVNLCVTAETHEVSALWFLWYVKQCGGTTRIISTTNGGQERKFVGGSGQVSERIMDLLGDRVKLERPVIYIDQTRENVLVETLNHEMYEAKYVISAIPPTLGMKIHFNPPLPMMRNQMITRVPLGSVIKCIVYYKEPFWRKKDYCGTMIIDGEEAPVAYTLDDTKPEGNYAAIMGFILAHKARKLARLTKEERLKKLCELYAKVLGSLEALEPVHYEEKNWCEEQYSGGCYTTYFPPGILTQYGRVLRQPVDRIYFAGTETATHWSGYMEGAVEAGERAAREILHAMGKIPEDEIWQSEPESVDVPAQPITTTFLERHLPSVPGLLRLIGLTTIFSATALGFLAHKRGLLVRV
Protocol: From a stock solution of 0.0405 g of racemic obliquin (92.5%; equal to 37.5 mg of pure compound) in 750 μl of dimethylsulfoxide (DMSO), working solutions were prepared with a concentration of obliquin of 4. 10^−4M in reaction buffer (0.05 M sodium phosphate, pH 7.4, 0.2% DMSO). The final concentrations of obliquin in the test system were 10^−4 M, 10^−5 M, 10^−6 M, 10^−7 M.
For determining the inhibition of monoaminoxidases' activity, the Amplex Red Monoamine Oxidase Assay Kit (Molecular Probes Nr._A-12214, Colorimetric version) was conducted according to manufacturers instructions.
As substrates for MAO-A enzyme (Sigma Nr. M7316) p-tyramine and as substrate for MAO-B enzyme (Sigma Nr. M7441) benzylamine were used. The concentration of MAO-A enzyme was 8 Units/ml, and that of MAO-B 4 Units/ml in the working solution.
MAO-A and MAO-B Assay, Colorimetric Version:
For the assay, 50 μl of each working solution (see above) were used. As control solution, the obliquin containing working solution was replaced by 50 μl of the reaction buffer.
50 μl of diluted MAO-A with a final concentration of 2 Units/ml and 50 μl of diluted MAO-B with a final concentration of 1 Unit/ml, respectively, were added.
100 μl of the Amplex solution containing horseradish peroxidase (2 U/ml) and the substrate tyramine (for MAO-A) or the substrate benzylamine (for MAO-B) were added.
To allow a subtraction of the background absorption a mixture of 100 μl of the Amplex solution and 100 μl of the reaction buffer was measured as a “blank”.
The samples were incubated at room temperature in the dark for 1 hour, and then the extinction at 535 nm determined in a Softmax Microplate photometer (Molecular Device).

Q: With `C=C(C)[C@H]1COc2cc3oc(=O)ccc3cc2O1` (racemic) [Obliquin, obliquin] as the molecule, how does the Ki [1] read?
A: The Ki was 4.9 µM.

Q: And the Ki [2]?
A: The Ki was 6.1 µM.

Q: And the “MAO inhibition specificity MAO-B versus MAO-A” value (MAO-B; compared with MAO-A)?
A: The value was “higher specificity for MAO-B than for MAO-A”.

Q: And the inhibition at 0.1 µM (MAO-B; obliquin 1 x 10^−7 M, substrate benzylamine)?
A: Its inhibition at 0.1 µM is 8.3%.

Q: And the inhibition at 1 µM (MAO-B; obliquin 10 x 10^−7 M, substrate benzylamine)?
A: Its inhibition at 1 µM is 33.3%.

Q: What about the inhibition at 10 µM (MAO-B; obliquin 100 x 10^−7 M, substrate benzylamine) of the same molecule?
A: The inhibition at 10 µM was 76.9%.

Q: What about the inhibition at 100 µM (MAO-B; obliquin 1000 x 10^−7 M, substrate benzylamine) of the same molecule?
A: The inhibition at 100 µM was 91.5%.
